Assay results: patent US5079254A, “Derivatives of 6-aminooctahydroindolizinetriol” (Merrell Dow Pharmaceuticals Inc., priority 1990, dated 1992)

Legend:
[1] = system: Lewis lung tumor cell; details: female mice implanted with Lewis lung tumor cell; Bernacki, page 93; cited from earlier work
[2] = biological target: hexosaminidase from porcine placenta; experiment: Inhibition of hexosaminidase activity, 4-nitrophenyl-N-acetyl-β-glucosaminide substrate, 96-well microplate (porcine placenta enzyme); format: biochemical; details: pH 4.5, 10 min preincubation at room temperature, substrate 30 min at 37° C., read at 405 nm
Procedure: (§1) In a preliminary screen, test compounds are studied over a range of concentrations from 0.1 to 100 μg/ml. together with a control sample. Specifically, the test compound is added to individual wells and made up to a total volume of 100 μl. To each well is added 25 μl of 1M sodium citrate buffer pH 4.5 and 25 μl of enzyme (1 mμ) in 10 mM sodium citrate at pH 4.5. The material is mixed and incubated at room temperature for 10 minutes. Then 50 μl of 10 mM substrate (4-nitrophenyl-N-acetyl-8-glucosaminide, Sigma # N-91376) is added and the mixture is incubated at 37° C. for 30 minutes. The reaction is then killed by adding 100 μl of 2% sodium carbonate and the yellow color due to release of 4-nitrophenol is read at 405 nm in an Elisa reader. The results obtained in this preliminary screen are then examined and, if inhibition has taken place, the procedure is repeated using several concentrations over a narrower range to provide for a more precise determination of the IC50.

[3] = biological target: hexosaminidase from human placenta; experiment: Inhibition of hexosaminidase activity, 4-nitrophenyl-N-acetyl-β-glucosaminide substrate, 96-well microplate (human placenta enzyme); format: biochemical; details: pH 4.5, 10 min preincubation at room temperature, substrate 30 min at 37° C., read at 405 nm
Procedure: as §1

Structure (SMILES) | increase of life span [1] | IC50 value for the inhibition of hexosaminidase from porcine placenta [2] | IC50 value for the inhibition of hexosaminidase from human placenta [3]
CC(=O)NC1=CO[C@H](CO)[C@@H](O)[C@@H]1O [2-acetamidoglucal] | 63% | – | –
CC(=O)N[C@H]1CN2CC[C@H](O)[C@@H]2[C@@H](O)[C@@H]1O [[1S-(1α,6β,7α,8β,8aβ)]-6-acetamidooctahydro-1,7,8-indolizinetriol] | – | 0.1 µg/mL | 0.1 µg/mL
